Laboratory results as given in patent publication US20080311232A1, “Cooling Compounds” (Givaudan, SA, priority 2007, published 2008).

Key:
Assay type in all cases: in vivo, human
[1] = tested on: panelists; assay: Cooling intensity: panelists taste aqueous solutions, compared with menthol at 2 ppm; settings: tasted by small group of panelists
[2] = tested on: panelist; assay: Application in toothpaste: toothgel brushed on a panelist's teeth, cooling perception; settings: for cooling perception rated higher than the control: control = peppermint oil toothgel
Procedure: The materials were mixed in the toothgel, a piece of toothgel was put on a toothbrush and a panelist's teeth were brushed. The mouth was rinsed with water and the water spat out. […] The cooling perception lasted for 40 minutes.
The materials were mixed in the toothgel, a piece of toothgel was put on a toothbrush and a panelist's teeth were brushed. The mouth was rinsed with water and the water spat out. […] The cooling perception was rated 24% higher than the control and lasted for 70 minutes.
The materials were mixed in the toothgel, a piece of toothgel was put on a toothbrush and a panelist's teeth were brushed. The mouth was rinsed with water and the water spat out. […] The cooling perception was rated 18% higher than the control and lasted for 60 minutes.
The materials were mixed in the toothgel, a piece of toothgel was put on a toothbrush and a panelist's teeth were brushed. The mouth was rinsed with water and the water spat out. […] The cooling perception was rated 95% higher than the control and lasted for 65 minutes.
The materials were mixed in the toothgel, a piece of toothgel was put on a toothbrush and a panelist's teeth were brushed. The mouth was rinsed with water and the water spat out. […] The cooling perception was rated 100% higher than the control and lasted for 40 minutes.
The materials were mixed in the toothgel, a piece of toothgel was put on a toothbrush and a panelist's teeth were brushed. The mouth was rinsed with water and the water spat out. […] The cooling perception was rated 30% higher than the control and lasted for over 35 minutes.

[3] = tested on: panelist; assay: Application in chewing gum: 2 g gum chewed by a panelist for 20 minutes, cooling perception; settings: for cooling perception rated higher than the control: control = peppermint oil gum
Procedure: The gum base, and half of the sorbitol were mixed, maltitol syrup was added and then mixed with the gum mass. The rest of the powdered ingredients (rest of the sorbitol, mannitol, ace-K, aspartame) were added and mixed for about 1 minute, at which point glycerine was added and the gum mass was mixed for about 5 minutes, to form the blank chewing gum mass. Peppermint oil was worked into the mass and a piece of the resulting gum (2 g) was chewed by a panelist for […] and spat out. […] The cooling perception lasted far 50 minutes.
The chemical in the peppermint oil was worked into the blank chewing gum mass from Example 12 a) and a piece of the resulting gum (2 g) was chewed by a panelist for 20 minutes and spat out. […] The cooling perception was rated 43% higher than the control and lasted for over 60 minutes.
The chemical and peppermint oil was worked into the blank chewing gum mass from Example 12 a) and a piece of the resulting gum (2 g) was chewed by a panelist for 20 minutes and spat out. […] The cooling perception was rated 40% higher than the control and lasts for over 60 minutes.
The chemical in the peppermint oil was worked into the blank chewing gum mass from Example 12 a) and a piece of the resulting gum (2 g) was chewed by a panelist for 20 minutes and spat out. […] The cooling perception was rated 27% higher than the control and lasted for over 60 minutes.

[4] = toothgel: 0.10 g of 1% solution of compound in peppermint oil + 0.40 g peppermint oil
[5] = toothgel: 0.50 g of 1% solution of compound in peppermint oil
[6] = chewing gum: 0.50 g of 1% solution of compound in peppermint oil
[7] = toothgel: 0.05 g of 1% solution of compound in peppermint oil + 0.45 g peppermint oil
[8] = chewing gum: 0.05 g of 1% solution of compound in peppermint oil + 0.45 g peppermint oil
[9] = toothgel: 0.025 g compound + 0.50 g peppermint oil

CC(C)[C@@H]1CC[C@@H](C)C[C@H]1O [l-Menthol, reference compound] was tested, and the “Concentration with a cooling intensity similar to or slightly higher than that of a solution of menthol at 2 ppm” value (“Concentration” for short) [1] was 2.0 ppm.

CN(C)C(=O)CCC(=O)O[C@@H]1C2(C)CCC(C2)C1(C)C (stereo partly drawn) [Example 7, (2R)-1,3,3-trimethylbicyclo[2.2.1]heptan-2-yl 4-(dimethylamino)-4-oxobutanoate] was tested, and the “Concentration” value [1] was 0.002 ppm.

With CC1(C)[C@H]2CC[C@](C)(C2)[C@H]1OC(=O)CCC(=O)O [Example 9, 4-oxo-4-((1R,2R,4S)-1,3,3-trimethylbicyclo[2.2.1]heptan-2-yloxy)butanoic acid] the “Concentration” value [1] was 0.10 ppm.

With CCOC(=O)CC(=O)O[C@@H]1C2(C)CCC(C2)C1(C)C (stereo partly drawn) [Example 6, Ethyl (2R)-1,3,3-trimethylbicyclo[2.2.1]heptan-2-yl malonate] the “Concentration” value [1] was 0.10 ppm, the cooling sensation felt [2, 4] was “intense cooling sensation” and the “duration of cooling perception” value [2, 4] was 60 min. The “cooling perception rated higher than the control” value [2, 4] was 18%, the cooling sensation felt [2, 5] was “intense cooling sensation” and the “duration of cooling perception” value [2, 5] was 65 min. The “cooling perception rated higher than the control” value [2, 5] was 95%, the cooling sensation felt [3, 6] was “cooling sensation” and the “duration of cooling perception” value [3, 6] was “over 60 minutes”. For the same compound, the “cooling perception rated higher than the control” value [3, 6] was 27%.

In the case of CC1(C)[C@@H]2CC[C@@]1(C)[C@H](OC(=O)CCC(=O)O)C2 [Example 4, 4-oxo-4-((1R,2R,4R)-1,7,7-trimethylbicyclo[2.2.1]heptan-2-yloxy)butanoic acid], the “Concentration” value [1] is reported as 0.001 ppm, the cooling sensation felt [2, 7] is reported as “intense cooling sensation” and the “duration of cooling perception” value [2, 7] is reported as 40 min. The “cooling perception rated higher than the control” value [2, 7] was 100%, the cooling sensation felt [3, 8] was “cooling sensation” and the “duration of cooling perception” value [3, 8] was “over 60 minutes”. The “cooling perception rated higher than the control” value [3, 8] was 40%.

In the case of O=C(O)CCC(=O)O[C@H]1C[C@@H]2CC[C@H]1C2 [Example 3, 4-((1S,2S,4R)-bicyclo[2.2.1]heptan-2-yloxy)-4-oxobutanoic acid], the cooling sensation felt [2, 4] is reported as “intense cooling sensation”, the “duration of cooling perception” value [2, 4] is reported as 70 min and the “cooling perception rated higher than the control” value [2, 4] is reported as 24%. The cooling sensation felt [3, 6] was “cooling sensation”, the “duration of cooling perception” value [3, 6] was “over 60 minutes” and the “cooling perception rated higher than the control” value [3, 6] was 43%.

For CCNC(=O)C1CC(C)CCC1C(C)C (centres unmarked) [WS-3, N-ethyl p-menthanecarboxamide, reference compound], the “Concentration” value [1] was 1.5 ppm.

C[C@@H](N)C(=O)OC1C2(C)CCC(C2)C1(C)C (stereo partly drawn) [Example 8, D-alanine fenchyl ester] was tested, and the “Concentration” value [1] was 0.20 ppm, the cooling sensation felt [2, 9] was “intense cooling sensation” and the “duration of cooling perception” value [2, 9] was “over 35 minutes”. For the same compound, the “cooling perception rated higher than the control” value [2, 9] was 30%.

CC1(C)[C@H]2CC[C@]1(C)[C@H](OC(=O)CCC(=O)O)C2 [Example 1, 4-oxo-4-(1S,2R,4S)1,7,7-trimethylbicyclo[2.2.1]heptan-2-yloxybutanoic acid] was tested, and the “Concentration” value [1] was 0.003 ppm.
